In assay [1] the target is T1, MDM2 (Homo sapiens, UniProt Q00987).
T1 construct: evaluate the intracellular MDM2 protein degradation capacity; endogenous in cells; host or cells: human dental pulp stem cells (hDPSCs)
The assay is described as follows: MDM2 protein degradation by Western blot (SDS-PAGE) in hDPSCs. It counts as cell-based. To be noted: FIG. 2, selection among initially selected compounds. The procedure: Human dental pulp stem cell lines (hDPSCs) were treated with 14 types of synthesized MDM2-PROTACs (10 µM) for 1 hour and Western blot analysis using SDS-PAGE gel was performed to evaluate the intracellular MDM2 protein degradation capacity.
On the technique in general: A western blot detects proteins with antibodies after separation by electrophoresis.

Assay [2] concerns p53. The assay can be described thus: p53 activation in hDPSCs (FIG. 2, compound and concentration selection). The class given is cell-based, Human.

T1 sequence (Q00987 whole entry): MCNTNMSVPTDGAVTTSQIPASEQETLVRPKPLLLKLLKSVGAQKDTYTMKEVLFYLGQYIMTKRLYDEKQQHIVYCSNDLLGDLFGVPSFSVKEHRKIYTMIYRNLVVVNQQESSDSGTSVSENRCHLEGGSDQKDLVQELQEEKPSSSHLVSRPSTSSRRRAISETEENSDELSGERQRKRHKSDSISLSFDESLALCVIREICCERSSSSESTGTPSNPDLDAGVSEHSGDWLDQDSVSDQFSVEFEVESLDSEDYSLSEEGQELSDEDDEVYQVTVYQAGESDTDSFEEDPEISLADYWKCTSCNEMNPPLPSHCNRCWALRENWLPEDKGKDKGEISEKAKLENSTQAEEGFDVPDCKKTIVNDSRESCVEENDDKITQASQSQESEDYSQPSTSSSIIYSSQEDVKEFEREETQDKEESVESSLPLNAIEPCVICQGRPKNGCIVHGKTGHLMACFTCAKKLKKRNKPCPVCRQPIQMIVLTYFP

With `COc1ccc(C2=NC(c3ccc(Cl)cc3)C(c3ccc(Cl)cc3)N2C(=O)N2CCN(CC(=O)NCCCCCCCCOc3cccc4c3C(=O)N(C3CCC(=O)NC3=O)C4=O)C(=O)C2)c(OC(C)C)c1` (stereo not drawn) [Compound 6b, 2-(4-(cis-4,5-bis(4-chlorophenyl)-2-(2-isopropoxy-4-methoxyphenyl)-4,5-dihydro-1H-imidazole-1-carbonyl)-2-oxopiperazin-1-yl)-N-(8-((2-(2,6-dioxoopiperidin-3-yl)-1,3-dioxoisoindolin-4-yl)oxy)octyl)acetamide], the MDM2 degradation result in assay [1] is “effectively degrade MDM2”. For the same molecule, the p53 activation entry in assay [2] is “activate p53”.
For `COc1ccc(C2=NC(c3ccc(Cl)cc3)C(c3ccc(Cl)cc3)N2C(=O)N2CCN(CC(=O)NCCCCCCCC#Cc3cccc4c3C(=O)N(C3CCC(=O)NC3=O)C4=O)C(=O)C2)c(OC(C)C)c1` (stereo not drawn) [Compound 16b, 2-(4-(cis-4,5-bis(4-chlorophenyl)-2-(2-isopropoxy-4-methoxyphenyl)-4,5-dihydro-1H-imidazole-1-carbonyl)-2-oxopiperazin-1-yl)-N-(9-(2-(2,6-dioxopiperidin-3-yl)-1,3-dioxoisoindolin-4-yl)non-8-yn-1-yl) acetamide], in that order: “effectively degrade MDM2” and “activate p53”.
